Experimental data published in ChEMBL document CHEMBL4689842, “EUbOPEN Chemogenomics Library wave 1” (2021).

System: U2OS
Assay: Incucyte cell viability with U2OS; note: filed as whole numbers so only -1 and 0 and 1 occur
Format: toxicity, cell-based
Details: human, 10 µM, compound concentration 10 uM
[1] = 6 h, replicate number 1, timepoint 6 hours
[2] = 6 h, replicate number 2, timepoint 6 hours
[3] = 12 h, replicate number 1, timepoint 12 hours
[4] = 18 h, replicate number 1, timepoint 18 hours
[5] = 24 h, replicate number 1, timepoint 24 hours
[6] = 0 h, replicate number 1, timepoint 0 hours
[7] = 0 h, replicate number 2, timepoint 0 hours
[8] = 12 h, replicate number 2, timepoint 12 hours
[9] = 18 h, replicate number 2, timepoint 18 hours
[10] = 24 h, replicate number 2, timepoint 24 hours

Row | SMILES | Growth Rate [1] | Growth Rate [2] | Growth Rate [3] | Growth Rate [4] | Growth Rate [5] | Growth Rate [6] | Growth Rate [7] | Growth Rate [8] | Growth Rate [9] | Growth Rate [10]
1 | S=C(NCCCc1c[nH]cn1)NCCCN(Cc1ccc(Cl)c(Cl)c1)c1ccc(Br)cn1 | -1 | 0 | 0 | 0 | 0 | – | – | – | – | –
2 | Cc1cc(C)c(S(=O)(=O)N(Cc2ccc(-c3cccc(S(C)(=O)=O)c3)cc2)Cc2ccc(C(F)(F)F)o2)c(C)c1 | – | 1 | 1 | 1 | 1 | 0 | 1 | – | – | –
3 | CCc1cccc(CC)c1NC(=O)c1nn(C)c2c1CCc1cnc(Nc3ccc(C(=O)NC4CCN(C)CC4)cc3OC(F)(F)F)nc1-2 | 1 | 0 | 0 | 0 | 0 | – | 0 | – | – | –
4 | Cl.Oc1ccc2c3c1O[C@H]1c4[nH]c5c(c4C[C@@]4(O)[C@@H](C2)N(CC2CC2)CC[C@]314)C[C@@]1(O)[C@H]2Cc3ccc(O)c4c3[C@@]1(CCN2CC1CC1)[C@H]5O4 | 0 | – | 1 | 1 | 1 | 0 | – | 0 | 0 | 0
5 | O=C(Nc1cccnn1)N1CCC(=Cc2cccc(Oc3ccc(C(F)(F)F)cn3)c2)CC1 | 0 | – | 0 | 0 | 0 | 0 | – | 1 | – | –
6 | COc1cc(N2CCN(C)CC2)ccc1Nc1ncc2c(n1)N(C)c1ccccc1C(=O)N2C | 1 | 0 | 1 | 0 | 0 | 0 | 1 | – | – | –
7 | CCNc1cc(N[C@H]2CC[C@H](O)CC2)nc(Nc2ccc3c(ccn3Cc3ccccc3)c2)n1 | 0 | – | 0 | 0 | 0 | 0 | – | – | – | –
8 | CCOc1cc(C(=O)N2CCC(N3CCN(C)CC3)CC2)ccc1Nc1ncc2c(n1)N(C1CCCC1)c1ccccc1C(=O)N2C | 1 | – | 0 | 0 | 0 | – | 0 | 1 | – | –
9 | O=C1N/C(=N/c2ccccc2F)S/C1=C\c1ccc(C(=O)O)cc1 | – | – | 1 | 1 | 1 | 0 | 1 | 0 | 0 | 0
10 | CN([C@@H](Cc1ccc(OS(=O)(=O)c2cccc3cnccc23)cc1)C(=O)N1CCN(c2ccccc2)CC1)S(=O)(=O)c1cccc2cnccc12 | 1 | – | 1 | 1 | 1 | – | 0 | – | – | –
11 | O=C(Nc1ccc(Cl)cc1)Nc1cccc(-c2cccc(N3CCCC3)n2)c1 | – | – | 0 | 0 | 0 | 0 | – | – | – | –
12 | CCn1c(=O)c(-c2ccc(-c3cncs3)cc2Cl)cc2cnc(Nc3ccc(N4CCN(C)CC4)cc3)nc21 | – | – | 0 | 0 | 0 | – | 1 | 1 | – | –
13 | Cc1ccc(C(=O)Nc2cccc(C(F)(F)F)c2)cc1Nc1nc(-c2cccnc2)nc2c1cnn2C | 0 | – | 0 | 0 | 0 | – | – | – | – | –
14 | CCCS(=O)(=O)c1nc(NC2CC2)cc(-c2ccc3c(ccn3C3CC(C)(C)NC(C)(C)C3)c2)n1 | 0 | – | 0 | 0 | 0 | – | 0 | – | – | –
15 | COC(=N)c1nc2ccc3ncnc(Nc4ccc(OC)cc4F)c3c2s1 | – | 1 | 0 | 0 | 0 | – | 1 | – | – | –
16 | CNC(=O)c1ccc(Nc2nc(OC3CCCC3)c3c(-c4ccc5nc(C)oc5c4)c[nH]c3n2)c(OC)c1 | – | – | 1 | 0 | 0 | – | – | – | – | –
17 | CCN1CCN(Cc2ccc(Nc3ncc(F)c(-c4cc(F)c5nc(C)n(C(C)C)c5c4)n3)nc2)CC1.CS(=O)(=O)O | – | – | 1 | 0 | 0 | – | 1 | – | 1 | –
18 | O=C(Nc1ccc(-c2ccnc(Nc3ccc(N4CCOCC4)cc3)n2)cc1)[C@@H]1CCCN1 | – | – | 1 | 1 | 1 | – | 0 | – | – | –
19 | CCN(CC)S(=O)(=O)Nc1cccc(-c2ccc3c(NC(=O)C4CC4)n[nH]c3c2)c1 | 0 | – | 0 | 0 | 0 | 0 | – | – | – | –
20 | CCc1cccc(CC)c1NC(=O)c1nn(C)c2c1CCc1cnc(Nc3ccc(N4CCN(C)CC4)cc3OC)nc1-2 | 1 | – | 0 | 0 | 0 | – | 0 | – | – | –
21 | Cl.O=c1c2cccn2c2ccccc2n1CCCN1CCC(c2ccc(Cl)cc2)CC1 | – | – | – | 1 | 1 | – | 0 | 1 | – | –
22 | CNc1cc(Oc2cc(C(=O)Nc3cc(N4CCN(C)CC4)cc(C(F)(F)F)c3)ccc2C)ncn1 | 0 | – | 0 | 0 | 0 | 0 | 1 | – | – | –
23 | Cl.O=C(c1ccc(Nc2nccc(-c3cc4ccccc4s3)n2)cc1)N1CCC(N2CCCC2)CC1 | – | – | 0 | 0 | 0 | – | 0 | – | – | –

Row | SMILES | Growth Rate [1] | Growth Rate [2] | Growth Rate [3] | Growth Rate [4] | Growth Rate [5] | Growth Rate [6] | Growth Rate [7] | Growth Rate [8] | Growth Rate [9] | Growth Rate [10]
24 | COc1ccc(S(=O)(=O)N(CCO)c2ccccc2CN(C)C/C=C/c2ccc(Cl)cc2)cc1.O=P(O)(O)O | 0 | 1 | 0 | 0 | 0 | 0 | 1 | 1 | – | –
25 | Cc1ccc2nc(NCCN)c3ncc(C)n3c2c1.O=C(O)C(F)(F)F.O=C(O)C(F)(F)F | 0 | – | 0 | 0 | 0 | 0 | – | – | – | –
26 | NC(=O)c1cccc(-c2cc(Nc3ccc(OC(F)(F)F)cc3)ncn2)c1 | 1 | – | 0 | 1 | 1 | – | 1 | – | 0 | 0
27 | CN1C2CCC1CC(OC(c1ccc(F)cc1)c1ccc(F)cc1)C2.Cl (stereo not given) | – | 0 | 1 | 0 | 0 | – | – | 0 | – | –
28 | CCOC(=O)c1c(C)[nH]c2ccc3c(c12)CN1CCc2cc(OC)ccc2C1O3 (stereo not given) | – | 1 | 0 | 0 | 0 | 1 | – | – | – | –
29 | C=CCn1c(=O)c2cnc(Nc3ccc(N4CCN(C)CC4)cc3)nc2n1-c1cccc(C(C)(C)O)n1 [ADAVOSERTIB] | 0 | – | 0 | 0 | 0 | 0 | – | – | – | –
30 | COc1cc(N2CCC(N3CCN(C)CC3)CC2)ccc1Nc1ncnc(Nc2ccccc2S(=O)(=O)C(C)C)n1 [ASP-3026] | 0 | 1 | 0 | 0 | 0 | – | 0 | – | – | –
31 | O=C(Nc1ccc(-n2nc(-c3cccnc3)cc2C(F)(F)F)cn1)c1ccc(-c2ccccc2)c(F)c1 [BI 2049] | 0 | 1 | 0 | 0 | 0 | – | – | – | – | –
32 | COCC(=O)NC/C=C/c1ccc2ncnc(Nc3ccc(Oc4ccc(C)nc4)c(C)c3)c2c1 [CP-724714] | 1 | – | 1 | 0 | 1 | 0 | 1 | – | – | 0
33 | COc1cc2ncnc(Nc3ccc(F)c(Cl)c3)c2cc1NC(=O)/C=C/CN1CCCCC1 [DACOMITINIB ANHYDROUS] | 0 | – | 0 | 0 | 0 | 0 | – | – | – | –
34 | C=C1/C(=C\C=C2/CCC[C@]3(C)[C@@H]([C@H](C)/C=C/[C@H](C)C(C)C)CC[C@@H]23)C[C@@H](O)C[C@@H]1O [DOXERCALCIFEROL] | – | – | 1 | 1 | 0 | 0 | – | 0 | 0 | –
35 | CCCn1c(=O)c2[nH]c(-c3cnn(Cc4cccc(C(F)(F)F)c4)c3)nc2n(CC)c1=O [GS 6201] | – | – | – | 1 | 1 | 0 | – | 1 | 0 | 0
36 | CCn1cc(-c2ccnc3[nH]c(-c4cccc(CN(C)C)c4)cc23)c(-c2ccc(NC(=O)N(C)C)cc2)n1 [GSK-1070916] | 0 | – | 0 | 0 | 0 | 1 | – | – | – | –
37 | CCN1CCN(c2ccc(Nc3cc(N(C)C(=O)Nc4c(Cl)c(OC)cc(OC)c4Cl)ncn3)cc2)CC1 [INFIGRATINIB] | 1 | – | 0 | 0 | 0 | – | 0 | – | – | –
38 | CN1CCC(=C2c3ccccc3CC(=O)c3sccc32)CC1.O=C(O)/C=C/C(=O)O [KETOTIFEN FUMARATE] | – | 0 | 1 | 1 | 1 | 1 | – | – | – | 0
39 | COc1ccc(-c2ccc3c(N4CCOCC4)nc(N4C[C@@H](C)O[C@@H](C)C4)nc3n2)cc1CO [Ku-0063794] | 1 | – | 1 | 0 | 0 | 0 | – | – | – | –
40 | CN(C)C(=O)C(CCN1CCC(O)(c2ccc(Cl)cc2)CC1)(c1ccccc1)c1ccccc1.Cl [LOPERAMIDE HYDROCHLORIDE] | 0 | – | 0 | 0 | 0 | – | – | – | – | –
41 | C[C@H]1Oc2cc(cnc2N)-c2c(nn(C)c2C#N)CN(C)C(=O)c2ccc(F)cc21 [LORLATINIB] | 1 | – | 1 | 1 | 1 | – | 1 | – | – | –
42 | O=C1NC(=O)C(c2cnc3ccccn23)=C1c1cn2c3c(cc(F)cc13)CN(C(=O)N1CCCCC1)CC2 [LY-2090314] | 0 | – | 0 | 0 | 0 | 0 | – | – | – | –
43 | CCOc1cc2ncc(C#N)c(Nc3ccc(OCc4ccccn4)c(Cl)c3)c2cc1NC(=O)/C=C/CN(C)C [NERATINIB] | 0 | 1 | 0 | 0 | 0 | – | 0 | – | – | –
44 | Cc1cn(-c2cc(NC(=O)c3ccc(C)c(Nc4nccc(-c5cccnc5)n4)c3)cc(C(F)(F)F)c2)cn1 [NILOTINIB] | 0 | – | 0 | 0 | 0 | – | 0 | – | 1 | 1
45 | COc1cccc2cc(-c3nc([C@H]4CC[C@H](C(=O)O)CC4)n4ncnc(N)c34)[nH]c12 [OSI-027] | 1 | – | 1 | 0 | 0 | 1 | – | – | 1 | –
